Assay results: patent publication US12459912B2 (priority 2020, dated 2025)

How the values were obtained:
[1] = molecular target: T1, VEGFR2 (Vascular endothelial growth factor receptor 2 (KDR tyrosine kinase)) (Homo sapiens, UniProt P35968); experiment: biochemical; assay type: binding
T1 construct: made in house; host or cells: E. coli BL21-derived host (T7 phage) or HEK-293

[2] = molecular target: ADRA1A (Adrenergic Receptor on α1A) (Homo sapiens, UniProt P35348); experiment: ADRA1A/Calcium Flux; assay type: cell-based; conditions: EC50 (μM)
[3] = molecular target: ADRB1 (Adrenergic Receptor β1) (Homo sapiens, UniProt P08588); experiment: ADRB1/cAMP; assay type: cell-based
[4] = molecular target: T2, PDE3A (cGMP-inhibited cyclic nucleotide phosphodiesterase 3A) (Homo sapiens, UniProt Q14432); experiment: PDE3A/Enzymatic; assay type: biochemical
T2 construct: purchased Signal Chem

[5] = system: T3, GABAA (Gamma-aminobutyric acid Receptor A); assay type: cell-based
T3 construct: other: opener

[6] = molecular target: ADORA2A (Adenosine Receptor A2A) (Homo sapiens, UniProt P29274); experiment: ADORA2A/Calcium Flux; assay type: cell-based
[7] = molecular target: ADRB2 (Adrenergic Receptor β2) (Homo sapiens, UniProt P07550); experiment: ADRB2/cAMP; assay type: cell-based; conditions: EC50 (μM)
[8] = molecular target: T4, 5-Hydroxytryptamine (Serotonin) Receptor 3A (5-HT3A) (Homo sapiens, UniProt P46098); experiment: 5-HT3A/Ion Channel; assay type: cell-based; conditions: EC50 (μM)
T4 construct: expressed in transfected cells

[9] = molecular target: T5, PDE4D2 (cAMP-specific 3′,5′-cyclic phospho-diesterase) (Homo sapiens, UniProt Q08499); experiment: PDE4D2/Enzymatic; assay type: biochemical
T5 construct: purchased Signal Chem

[10] = molecular target: T6, MAOA (Monoamine oxidase type A) (Homo sapiens, UniProt P21397); experiment: MAOA/Enzymatic; assay type: biochemical
T6 construct: purchased Sigma

[11] = molecular target: OPRM1 (Opioid Receptor Mu) (Homo sapiens, UniProt P35372); experiment: cell-based
[12] = molecular target: CHRM3 (Muscarinic acetylcholine Receptor M3) (Homo sapiens, UniProt P20309); experiment: cell-based

ADRB2 (Adrenergic Receptor β2), sequence (P07550 whole entry): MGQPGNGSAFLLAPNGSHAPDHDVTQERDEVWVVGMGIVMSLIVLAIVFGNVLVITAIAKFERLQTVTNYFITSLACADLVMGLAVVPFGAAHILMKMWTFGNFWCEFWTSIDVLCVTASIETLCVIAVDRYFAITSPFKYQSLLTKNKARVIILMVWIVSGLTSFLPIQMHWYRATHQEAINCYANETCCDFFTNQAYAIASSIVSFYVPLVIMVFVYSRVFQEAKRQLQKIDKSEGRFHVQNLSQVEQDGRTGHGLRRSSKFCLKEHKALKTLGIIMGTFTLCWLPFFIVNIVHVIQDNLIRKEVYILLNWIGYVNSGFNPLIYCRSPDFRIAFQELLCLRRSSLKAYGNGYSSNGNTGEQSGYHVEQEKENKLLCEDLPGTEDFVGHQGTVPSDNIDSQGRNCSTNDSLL
T4 sequence (P46098 24-478): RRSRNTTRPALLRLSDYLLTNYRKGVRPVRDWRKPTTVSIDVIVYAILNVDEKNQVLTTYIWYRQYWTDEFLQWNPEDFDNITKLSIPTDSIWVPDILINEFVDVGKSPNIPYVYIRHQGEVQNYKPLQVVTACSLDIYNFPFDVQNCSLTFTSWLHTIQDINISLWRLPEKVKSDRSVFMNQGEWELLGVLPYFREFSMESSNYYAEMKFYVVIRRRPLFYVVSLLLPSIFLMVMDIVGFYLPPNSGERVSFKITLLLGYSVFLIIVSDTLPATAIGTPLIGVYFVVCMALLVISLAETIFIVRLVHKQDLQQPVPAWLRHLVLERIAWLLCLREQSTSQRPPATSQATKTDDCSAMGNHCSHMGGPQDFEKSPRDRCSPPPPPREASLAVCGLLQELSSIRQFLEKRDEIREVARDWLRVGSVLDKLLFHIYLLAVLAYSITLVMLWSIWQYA
ADRA1A (Adrenergic Receptor on α1A), sequence (P35348 whole entry): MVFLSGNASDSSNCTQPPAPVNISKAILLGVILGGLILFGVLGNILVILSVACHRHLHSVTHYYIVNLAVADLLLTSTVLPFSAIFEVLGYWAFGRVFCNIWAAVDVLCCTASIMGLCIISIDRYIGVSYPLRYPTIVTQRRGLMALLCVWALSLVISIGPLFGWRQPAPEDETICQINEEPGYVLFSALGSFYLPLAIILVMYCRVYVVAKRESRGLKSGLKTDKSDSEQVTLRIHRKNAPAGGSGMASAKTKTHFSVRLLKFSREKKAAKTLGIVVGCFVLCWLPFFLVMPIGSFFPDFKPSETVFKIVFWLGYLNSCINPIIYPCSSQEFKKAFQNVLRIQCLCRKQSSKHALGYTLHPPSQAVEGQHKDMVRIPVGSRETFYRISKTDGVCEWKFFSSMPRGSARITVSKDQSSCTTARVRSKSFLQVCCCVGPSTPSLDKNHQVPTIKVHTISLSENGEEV
T2 sequence (Q14432 whole entry): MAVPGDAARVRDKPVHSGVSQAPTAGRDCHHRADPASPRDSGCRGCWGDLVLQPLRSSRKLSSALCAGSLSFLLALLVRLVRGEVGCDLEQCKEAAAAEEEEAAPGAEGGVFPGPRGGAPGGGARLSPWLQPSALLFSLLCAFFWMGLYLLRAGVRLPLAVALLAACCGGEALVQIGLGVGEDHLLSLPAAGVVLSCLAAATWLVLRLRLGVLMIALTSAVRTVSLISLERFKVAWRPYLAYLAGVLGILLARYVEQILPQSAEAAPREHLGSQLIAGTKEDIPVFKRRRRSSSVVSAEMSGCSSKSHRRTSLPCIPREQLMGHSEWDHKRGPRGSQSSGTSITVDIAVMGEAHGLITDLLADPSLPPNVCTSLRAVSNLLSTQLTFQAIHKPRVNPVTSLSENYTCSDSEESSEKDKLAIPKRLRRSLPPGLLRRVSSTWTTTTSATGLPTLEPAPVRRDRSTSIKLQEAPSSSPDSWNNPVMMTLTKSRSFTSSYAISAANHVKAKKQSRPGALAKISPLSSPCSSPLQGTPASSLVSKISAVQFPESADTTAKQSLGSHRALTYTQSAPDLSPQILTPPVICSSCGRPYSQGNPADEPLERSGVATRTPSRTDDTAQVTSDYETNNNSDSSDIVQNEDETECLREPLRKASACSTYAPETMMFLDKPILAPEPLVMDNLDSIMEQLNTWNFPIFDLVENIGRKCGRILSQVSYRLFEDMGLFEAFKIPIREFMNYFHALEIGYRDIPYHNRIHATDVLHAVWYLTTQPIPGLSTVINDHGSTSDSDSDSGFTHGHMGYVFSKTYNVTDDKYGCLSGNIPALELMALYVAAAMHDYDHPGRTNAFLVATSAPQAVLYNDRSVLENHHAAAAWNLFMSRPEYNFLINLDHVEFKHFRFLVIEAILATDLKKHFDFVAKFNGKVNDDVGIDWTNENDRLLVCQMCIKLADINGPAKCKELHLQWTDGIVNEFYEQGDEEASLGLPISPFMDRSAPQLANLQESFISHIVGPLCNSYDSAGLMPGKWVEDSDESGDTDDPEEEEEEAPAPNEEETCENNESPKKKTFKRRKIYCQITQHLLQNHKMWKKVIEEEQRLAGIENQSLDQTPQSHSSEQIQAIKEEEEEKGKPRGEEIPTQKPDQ
ADORA2A (Adenosine Receptor A2A), sequence (P29274 whole entry): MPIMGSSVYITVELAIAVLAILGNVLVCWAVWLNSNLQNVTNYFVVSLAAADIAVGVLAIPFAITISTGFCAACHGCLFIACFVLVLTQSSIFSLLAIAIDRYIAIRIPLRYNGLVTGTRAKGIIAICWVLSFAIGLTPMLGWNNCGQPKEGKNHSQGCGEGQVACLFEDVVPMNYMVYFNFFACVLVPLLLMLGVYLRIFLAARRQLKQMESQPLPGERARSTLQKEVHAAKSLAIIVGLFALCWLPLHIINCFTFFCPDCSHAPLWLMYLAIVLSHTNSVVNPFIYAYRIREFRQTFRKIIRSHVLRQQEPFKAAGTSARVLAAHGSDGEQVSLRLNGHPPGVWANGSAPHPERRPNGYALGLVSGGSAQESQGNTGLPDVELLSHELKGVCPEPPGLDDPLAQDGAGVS
T5 sequence (Q08499 303-809 limits assumed): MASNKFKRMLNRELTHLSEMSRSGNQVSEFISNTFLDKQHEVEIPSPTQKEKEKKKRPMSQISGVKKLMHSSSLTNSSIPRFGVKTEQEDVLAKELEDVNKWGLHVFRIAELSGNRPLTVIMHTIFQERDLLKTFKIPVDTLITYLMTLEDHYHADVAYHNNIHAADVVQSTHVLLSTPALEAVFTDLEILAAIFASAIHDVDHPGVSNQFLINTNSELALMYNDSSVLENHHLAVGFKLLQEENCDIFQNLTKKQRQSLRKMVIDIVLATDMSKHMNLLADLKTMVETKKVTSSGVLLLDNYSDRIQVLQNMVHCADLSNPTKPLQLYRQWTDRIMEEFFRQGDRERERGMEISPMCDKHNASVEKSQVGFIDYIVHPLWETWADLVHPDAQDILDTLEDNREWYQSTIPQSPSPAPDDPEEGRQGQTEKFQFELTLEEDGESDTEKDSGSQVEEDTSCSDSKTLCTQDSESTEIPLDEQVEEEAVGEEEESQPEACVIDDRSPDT
T1 sequence (P35968 20-1356): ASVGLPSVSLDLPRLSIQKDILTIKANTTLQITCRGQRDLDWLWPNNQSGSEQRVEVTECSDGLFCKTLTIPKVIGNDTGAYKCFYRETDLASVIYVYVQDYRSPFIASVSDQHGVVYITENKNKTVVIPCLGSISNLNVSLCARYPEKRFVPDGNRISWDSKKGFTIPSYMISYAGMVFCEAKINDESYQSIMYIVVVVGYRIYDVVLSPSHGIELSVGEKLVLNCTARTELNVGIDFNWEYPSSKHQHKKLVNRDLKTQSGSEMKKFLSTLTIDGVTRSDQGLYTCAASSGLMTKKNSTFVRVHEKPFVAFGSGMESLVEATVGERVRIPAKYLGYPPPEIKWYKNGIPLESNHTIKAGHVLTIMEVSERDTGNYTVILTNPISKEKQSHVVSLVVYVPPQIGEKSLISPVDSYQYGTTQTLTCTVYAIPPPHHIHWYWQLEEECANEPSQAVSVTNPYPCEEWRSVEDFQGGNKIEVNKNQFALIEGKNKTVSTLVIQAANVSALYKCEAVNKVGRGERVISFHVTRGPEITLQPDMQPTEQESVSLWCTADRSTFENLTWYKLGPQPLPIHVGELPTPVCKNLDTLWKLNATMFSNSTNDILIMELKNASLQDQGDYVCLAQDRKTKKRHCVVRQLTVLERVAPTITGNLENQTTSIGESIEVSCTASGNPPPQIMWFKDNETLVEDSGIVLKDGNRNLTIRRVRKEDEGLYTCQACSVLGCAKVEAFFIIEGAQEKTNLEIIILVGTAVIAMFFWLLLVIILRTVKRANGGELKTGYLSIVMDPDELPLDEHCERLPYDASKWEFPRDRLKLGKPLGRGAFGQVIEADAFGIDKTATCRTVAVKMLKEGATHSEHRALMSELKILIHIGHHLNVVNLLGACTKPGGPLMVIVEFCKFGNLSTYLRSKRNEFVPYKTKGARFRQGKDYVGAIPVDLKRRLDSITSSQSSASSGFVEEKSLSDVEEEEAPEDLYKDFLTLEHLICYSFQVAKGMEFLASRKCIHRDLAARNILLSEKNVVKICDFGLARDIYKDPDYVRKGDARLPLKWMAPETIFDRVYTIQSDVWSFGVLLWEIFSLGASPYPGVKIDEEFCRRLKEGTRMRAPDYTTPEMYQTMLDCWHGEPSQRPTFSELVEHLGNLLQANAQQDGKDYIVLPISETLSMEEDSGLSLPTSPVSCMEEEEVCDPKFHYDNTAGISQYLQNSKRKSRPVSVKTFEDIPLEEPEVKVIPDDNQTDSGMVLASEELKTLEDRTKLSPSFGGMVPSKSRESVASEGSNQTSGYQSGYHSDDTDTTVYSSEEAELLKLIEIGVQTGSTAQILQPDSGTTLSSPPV

SMILES: CNC(C)Cc1ccc2ccsc2c1 (stereo not drawn) [drawing 522]
- EC50 [1]: > 10 µM
- EC50 ([2]; agonist): > 10 µM
- EC50 ([2]; antagonist): 3.43 µM
- EC50 [3]: > 10 µM
- EC50 [4]: > 10 µM
- EC50 [5]: > 10 µM
- EC50 [6]: > 10 µM
- EC50 ([7]; agonist): > 10 µM
- EC50 ([7]; antagonist): 5.79 µM
- EC50 ([8]; blocker): 5.18 µM
- EC50 ([8]; opener): > 10 µM
- EC50 [9]: > 10 µM
- EC50 [10]: 0.945 µM
- EC50 [11]: > 10 µM
- EC50 [12]: > 10 µM
